Measurements: US11737955B2, “Multi-functional micro and nanoparticles for use in root canal therapies” (THE GOVERNING COUNCIL OF THE UNIVERSITY OF TORONTO, priority 2012, dated 2023)

What was measured:
[1] = tested on: E. faecalis biofilm; test: Uptake of photosensitizers by E. faecalis biofilm; type: cell-based, E. faecalis (ATCC 29212); conditions: 15 min incubation, 7 day old biofilm
Procedure: The uptake of Rose Bengal, methylene blue and chitosan polymer-Rose Bengal nanoparticles was evaluated on biofilm forms of E. faecalis. A seven day old biofilm of E. faecalis (ATCC 29212) was grown in 24 multi-well plates. 1 mL of overnight E. faecalis culture was added into each well of the multi-well plates and incubated at 37° C., 100 rpm. Fresh media was replenished every 48 hours to provide a constant supply of nutrients and to remove dead bacterial cells. On the eighth day, the media was removed from the wells, and the biofilm was carefully washed once with sterile deionized-water. Different concentrations of chitosan polymer-Rose Bengal nanoparticles (0.3, 0.5 & 1 mg/mL) and MB and Rose Bengal (10, 25, 50 & […]) were added to the biofilm and incubated at 37° C. for 15 min, protected from ambient light. Three samples were used for each concentration. Excess photosensitizer solutions were removed leaving behind the bound Rose Bengal, MB and chitosan polymer-Rose Bengal nanoparticles in biofilm and washed once. The biofilm bacteria were treated with 1 mL of 2% SDS for 20 h in order to extract the cell-bound photosensitizers. The biofilms were disrupted and collected in eppendorf tubes. The biofilm bacteria were centrifuged (3000 rpm, 10 min) and the supernatant solution was taken for photosensitizer quantification. Quantification of photosensitizer was done spectrophotometrically (Epoch, Biotek, USA) at the absorption maxima of the Rose Bengal (540 nm). Calibration curves were constructed for each Rose Bengal in 2% SDS. Uptake values were obtained as the total Rose Bengal and MB concentrations (μM) extracted from both the 1 mL of planktonic and biofilm bacteria.

[2] = tested on: NIH 3T3 mouse fibroblast cells; test: Cytotoxicity, MTT assay with and without photodynamic therapy; type: cell-based
Procedure: To evaluate cytotoxicity approximately 1×10^5 NIH 3T3 mouse fibroblast cells (American Type Culture Collection CCL 1, Rockville, Md.) were seeded into 24 well plates in Dulbecco's Modified Eagle medium (DMEM) supplemented with 10% Bovine Serum and antibiotics and incubated for 48 hrs in 5% CO2 incubator (Thermo Electron Corporation, USA). After incubation, chitosan polymer-Rose Bengal nanoparticles and Rose Bengal dissolved in DMEM were added into the cells and incubated for 15 min in dark. The cells were irradiated with a white light source and a 540 nm fiber (Lumacare Inc) for a total dose of 20 J/cm^2. Rose Bengal and chitosan polymer-Rose Bengal nanoparticles were also tested without irradiation. […]
The supernatant media was removed without disturbing the cell line, and the cell layer was washed with 1 mL of phosphate-buffered saline. Cell survival was determined by the standard 3-(4, 5-dimethylthiazol-2-yl)-2, 5-diphenyltetrazolium bromide (MTT) assay (Sigma Aldrich) that determines the mitochondrial activity. […] The absorbance at 540 nm was measured photometrically by using a UV-visible spectrophotometer (Epoch, Biotek, USA). Percentage survival was calculated based on control sample without any treatment as 100%. All analyses were repeated three times in triplicate, and the statistical significance was analyzed by one-way analysis of variance.

[3] = tested on: planktonic E. faecalis; test: Membrane integrity of planktonic bacteria (release of cell constituents, OD260); type: cell-based, E. faecalis (ATCC 29212); conditions: following photodynamic therapy, 5 J/cm^2, 540 nm
Procedure: Leakage of cytoplasmic contents (DNA) is a characteristic indication of damage to the bacterial cytoplasmic membrane. Absorbance at 260 nm was used to estimate the amount of intracellular contents leaked from bacteria subjected to different photosensitizers and photodynamic therapy. E. faecalis (ATCC 29212) was incubated overnight at 37° C. under agitation in the Brain-Heart Infusion (BHI) medium (Sigma, USA). The culture was centrifuged (4000 rpm, 10 min, 4° C.), supernatants discarded and washed twice in sterile deionized water (DIW). The cells were resuspended in deionized water and adjusted to 10^7 CFU/mL (optical density 0.7) at 600 nm. The cell suspension (1 mL) was then added into eppendorf tubes and centrifuged. The supernatants were discarded and the cell pellets were treated with different photosensitizer solutions and maintained at 37° C. for 15 min, protected from ambient light. The kinetics of release of intracellular contents, treated bacterial cells were filtered (0.2 μm pore size, Pall) and absorbance of the filtrate recorded at 260 nm (OD260). For photodynamic therapy, the photosensitized cells were centrifuged and cell pellets irradiated (5 J/cm^2, 540 nm). The % change in OD260 at 15 min post sensitization and after irradiation with 5 J/cm^2 was calculated with respect to the OD260 of the sample measured at 0 min.

[4] = tested on: planktonic E. faecalis; test: Antibacterial efficacy on planktonic bacteria (CFU count); type: cell-based, E. faecalis (ATCC 29212); conditions: 540 nm, 15 min sensitization
Procedure: E. faecalis (ATCC 29212) was used to test the antibacterial efficacy of Rose Bengal and chitosan polymer-Rose Bengal nanoparticles in both planktonic and biofilm forms. Planktonic cell pellets (10^9 cells/mL) were obtained and the cell pellets treated with 1 mL of Rose Bengal (10 μM) and chitosan polymer-Rose Bengal nanoparticles (0.1 & 0.3 mg/mL), at 37° C. for 15 min, in the manner previously described and protected from ambient light to allow sensitization. Dark toxicity was evaluated after 15 min of sensitization with the two treatment solutions. In the case of photodynamic therapy, the photosensitizer solutions were removed leaving a thin smear at the bottom of the eppendorf tubes. The sensitized planktonic-bacteria were irradiated using a 540 nm fiber with doses of 2 and 5 J/cm^2. After treatment, cell pellets were resuspended in sterile deionized-water (1 mL) and 100 μL of the suspension was plated in freshly poured BHI agar plates after serial dilution. Colonies were counted after 24 hours of incubation at 37° C. and expressed as log colony forming units (CFU) per mL.

[5] = tested on: E. faecalis biofilm; test: Antibacterial efficacy on 7-days old biofilm (CFU count); type: cell-based, E. faecalis (ATCC 29212)
Procedure: In order to test the antibacterial-efficacy of nanoparticulates on bacterial-biofilm, 7-days old biofilm of E. faecalis (ATCC 29212) was grown in well of multiwell-plates as mentioned above. On the eighth day, the media was removed from the wells, and the biofilm was carefully washed once with sterile deionized-water. The biofilm-bacteria was treated with chitosan polymer-Rose Bengal nanoparticles and Rose Bengal and exposed to photodynamic therapy with different doses. Sensitization was done using 1 mL of Rose Bengal (10 μM) and chitosan polymer-Rose Bengal nanoparticles (0.1 & 0.3 mg/mL) at 37° C. for 15 min, protected from ambient light. Subsequently, the excess photosensitizer solutions were removed leaving behind the bound chitosan polymer-Rose Bengal nanoparticles and Rose Bengal. Dark toxicity was evaluated after sensitization period with the two treatment solutions. In case of photodynamic therapy, the sensitized biofilm-bacteria were irradiated using a 540 nm fiber with dosage of 20, 40 and 60 J/cm^2; and fractionated dosage of 10 and 20 J/cm^2 twice. After treatment, the biofilms were washed gently and 1 mL of sterile deionized-water was added. […] Colonies were counted after 24 hours of incubation at 37° C. and expressed as log colony forming units (CFU) per mL. The experiments were carried out in triplicates and the mean values were calculated.

[6] = tested on: E. faecalis biofilm; test: Biofilm structure by confocal laser scanning microscopy; type: cell-based, E. faecalis (ATCC 29212)
Procedure: The structure of the 7-days old biofilm following treatment with nanoparticulates was assessed using confocal-laser-scanning-microscopy (CLSM). E. faecalis (ATCC 29212) biofilm was grown on a glass bottom culture dishes. Following treatment with Rose Bengal (10 μM) and chitosan polymer-Rose Bengal nanoparticles (0.3 mg/mL) the as mentioned above, biofilms were washed with 1 mL of sterile deionized-water. The biofilms were then stained with 200 μL, of Live/Dead® Baclight™ stain (Molecular Probes, Eugene, Oreg.) and incubated in the dark for 10 minutes. The biofilm-structures were then viewed under spinning disk confocal-laser-scanning microscopy (Olympus, Japan). Kr/Ar laser was the source of illumination with 488 nm excitation and long-pass 500-523 nm and 622-722 nm emission filter settings for green and red signals respectively. Nine different areas were imaged from each sample using a 60× oil objective. The optical sections of the biofilm-structure were first recorded then subsequently analyzed using Velocity® software. Student t-test was used to compare the thickness of the biofilm before and after nanoparticulates treatment.

Compound	Biofilm E. faecalis photosensitizer uptake/mL of cells ([1]; photosensitizer 10 μM) [µM]	Biofilm E. faecalis photosensitizer uptake/mL of cells ([1]; photosensitizer 25 μM) [µM]	Biofilm E. faecalis photosensitizer uptake/mL of cells ([1]; photosensitizer 50 μM) [µM]	Biofilm E. faecalis photosensitizer uptake/mL of cells ([1]; photosensitizer 100 μM) [µM]	cell survival after photodynamic therapy ([2]; NIH 3T3, 540 nm, 20 J/cm^2)	dark toxicity ([2]; NIH 3T3, 15 min exposure, no irradiation)	release of cell constituents (absorbance at 260 nm) [3]	light dose giving complete planktonic bacterial killing [4] [J/cm^2]	elimination of biofilm bacteria ([5]; fractionated photodynamic therapy, CSRBnp 0.3 mg/mL, Rose Bengal 10 μM)	killing of biofilm-bacteria ([5]; photodynamic therapy at 60 J/cm^2)	biofilm architecture ([6]; after PD treatment (irradiation))	thickness of the biofilm ([6]; after PD treatment, Rose Bengal 10 μM, CSRBnp 0.3 mg/mL, untreated 39.2±7.3) [µm]
O=C1OC2(c3cc(I)c(O)c(I)c3Oc3c2cc(I)c(O)c3I)c2c(Cl)c(Cl)c(Cl)c(Cl)c21 [RB, Rose Bengal]	2.72 ± 0.15	2.80 ± 0.09	3.01 ± 0.11	3.68 ± 0.17	further reduction of cell survival	higher dark toxicity	increased absorbance at 260 nm	5	not with Rose Bengal	did not show complete killing	not disrupted	21.5 ± 9.57
CN(C)c1ccc2nc3ccc(=[N+](C)C)cc-3sc2c1 [MB, methylene blue]	0.96 ± 0.07	1.75 ± 0.21	3.15 ± 0.16	5.07 ± 0.19	–	–	–	–	–	–	–	–
